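Growth conditions: 96-well plates. Treatment: test compound, 48 hours, 5 concentrations. Analysis: linear interpolation between bracketing concentrations; unreached endpoints set to highest concentration. Definition used: TGI = concentration required for complete inhibition of growth.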
Tests used:
Test in all cases: DTP human tumour cell line panel, 48 h
A549 NSCLC = test system: A549 NSCLC
BT-549 breast = test system: BT-549 breast
CAKI-1 renal = test system: CAKI-1 renal
HOP-92 NSCLC = test system: HOP-92 NSCLC
HS 578T breast = test system: HS 578T breast
IGROV1 ovarian = test system: IGROV1 ovarian
KM12 colon = test system: KM12 colon
MDA-MB-435 = test system: MDA-MB-435
OVCAR-3 ovarian = test system: OVCAR-3 ovarian
OVCAR-4 ovarian = test system: OVCAR-4 ovarian
OVCAR-5 ovarian = test system: OVCAR-5 ovarian
SF-268 CNS = test system: SF-268 CNS
SK-OV-3 ovarian = test system: SK-OV-3 ovarian
SN12C renal = test system: SN12C renal
SNB-19 CNS = test system: SNB-19 CNS
UACC-62 melanoma = test system: UACC-62 melanoma
OVCAR-8 ovarian = test system: OVCAR-8 ovarian
UO-31 renal = test system: UO-31 renal

N#CC(C#N)=c1c(=O)c2c3ccccc3cc3cccc1c32
TGI (A549 NSCLC): > 100 µM | TGI (BT-549 breast): > 100 µM | TGI (CAKI-1 renal): > 100 µM | TGI (HOP-92 NSCLC): > 100 µM | TGI (HS 578T breast): 85 µM | TGI (IGROV1 ovarian): > 100 µM | TGI (KM12 colon): > 100 µM | TGI (MDA-MB-435): > 100 µM | TGI (OVCAR-3 ovarian): > 100 µM | TGI (OVCAR-4 ovarian): > 100 µM | TGI (OVCAR-5 ovarian): > 100 µM | TGI (SF-268 CNS): > 100 µM | TGI (SK-OV-3 ovarian): > 100 µM | TGI (SN12C renal): > 100 µM | TGI (SNB-19 CNS): > 100 µM | TGI (UACC-62 melanoma): > 100 µM

COc1cc2nc(-c3cccs3)nc(Nc3cccc([N+](=O)[O-])c3)c2cc1OC
TGI (A549 NSCLC): 53.8 µM | TGI (BT-549 breast): 39.7 µM | TGI (CAKI-1 renal): 36.8 µM | TGI (HS 578T breast): 70.5 µM | TGI (IGROV1 ovarian): 32.2 µM | TGI (KM12 colon): 40.6 µM | TGI (MDA-MB-435): 31.6 µM | TGI (OVCAR-3 ovarian): 36.6 µM | TGI (OVCAR-4 ovarian): > 100 µM | TGI (OVCAR-5 ovarian): 41.4 µM | TGI (OVCAR-8 ovarian): 56.8 µM | TGI (SF-268 CNS): 43.6 µM | TGI (SK-OV-3 ovarian): 41.5 µM | TGI (SN12C renal): 33.2 µM | TGI (SNB-19 CNS): 33.6 µM | TGI (UACC-62 melanoma): 31.1 µM | TGI (UO-31 renal): 43.9 µM

O=C1CSC(c2c[nH]c3ccccc23)N1c1cccc(Cl)c1 (stereo not drawn)
TGI (A549 NSCLC): > 100 µM | TGI (BT-549 breast): 96.6 µM | TGI (HOP-92 NSCLC): > 100 µM | TGI (HS 578T breast): > 100 µM | TGI (IGROV1 ovarian): > 100 µM | TGI (KM12 colon): > 100 µM | TGI (MDA-MB-435): > 100 µM | TGI (OVCAR-3 ovarian): > 100 µM | TGI (OVCAR-4 ovarian): > 100 µM | TGI (OVCAR-5 ovarian): > 100 µM | TGI (OVCAR-8 ovarian): > 100 µM | TGI (SF-268 CNS): > 100 µM | TGI (SK-OV-3 ovarian): > 100 µM | TGI (SN12C renal): > 100 µM | TGI (SNB-19 CNS): > 100 µM | TGI (UACC-62 melanoma): > 100 µM | TGI (UO-31 renal): > 100 µM

CSC(=S)CC(O)[C@@H]1CC2c3ccccc3C1c1ccccc12 (stereo partly drawn)
TGI (A549 NSCLC): 34.4 µM | TGI (BT-549 breast): 34.2 µM | TGI (HOP-92 NSCLC): 38.8 µM | TGI (HS 578T breast): 80.2 µM | TGI (IGROV1 ovarian): 33.1 µM | TGI (KM12 colon): 25.5 µM | TGI (MDA-MB-435): 26 µM | TGI (OVCAR-3 ovarian): 22.2 µM | TGI (OVCAR-4 ovarian): 27.5 µM | TGI (OVCAR-5 ovarian): 33.4 µM | TGI (OVCAR-8 ovarian): 39.2 µM | TGI (SF-268 CNS): 45.4 µM | TGI (SK-OV-3 ovarian): 28.7 µM | TGI (SN12C renal): 45.2 µM | TGI (SNB-19 CNS): 26.7 µM | TGI (UACC-62 melanoma): 25.4 µM | TGI (UO-31 renal): 25.6 µM

CC(=O)OCC1OC(n2c3c(c(-c4ccc(C)cc4)c(C#N)c2=S)C(=O)CC(C)(C)C3)C(OC(C)=O)C(OC(C)=O)C1OC(C)=O (stereo not drawn)
TGI (A549 NSCLC): > 100 µM | TGI (BT-549 breast): 38.1 µM | TGI (CAKI-1 renal): > 100 µM | TGI (HOP-92 NSCLC): > 100 µM | TGI (HS 578T breast): > 100 µM | TGI (IGROV1 ovarian): > 100 µM | TGI (KM12 colon): > 100 µM | TGI (MDA-MB-435): > 100 µM | TGI (OVCAR-3 ovarian): > 100 µM | TGI (OVCAR-5 ovarian): > 100 µM | TGI (OVCAR-8 ovarian): > 100 µM | TGI (SF-268 CNS): 94.9 µM | TGI (SN12C renal): 42.7 µM | TGI (SNB-19 CNS): > 100 µM | TGI (UACC-62 melanoma): 44.4 µM | TGI (UO-31 renal): > 100 µM

CC1(C)CNC(=O)C2(CCCO2)CNC(C)(C)CNC(=O)C2(CCCO2)CN1 (stereo not drawn)
TGI (A549 NSCLC): > 10 µM | TGI (BT-549 breast): > 10 µM | TGI (CAKI-1 renal): > 10 µM | TGI (HOP-92 NSCLC): > 10 µM | TGI (HS 578T breast): > 10 µM | TGI (IGROV1 ovarian): > 10 µM | TGI (KM12 colon): > 10 µM | TGI (MDA-MB-435): > 10 µM | TGI (OVCAR-3 ovarian): > 10 µM | TGI (OVCAR-4 ovarian): > 10 µM | TGI (OVCAR-5 ovarian): > 10 µM | TGI (OVCAR-8 ovarian): > 10 µM | TGI (SF-268 CNS): > 10 µM | TGI (SK-OV-3 ovarian): > 10 µM | TGI (SN12C renal): > 10 µM | TGI (SNB-19 CNS): > 10 µM | TGI (UACC-62 melanoma): > 10 µM

CN1CCN(c2cc3[nH]c4cc(O)cc(O)c4c(=O)c3cc2N)CC1
TGI (A549 NSCLC): > 100 µM | TGI (BT-549 breast): 95.1 µM | TGI (CAKI-1 renal): 87 µM | TGI (HOP-92 NSCLC): 44 µM | TGI (HS 578T breast): > 100 µM | TGI (IGROV1 ovarian): 72.5 µM | TGI (KM12 colon): 71.7 µM | TGI (MDA-MB-435): 42.4 µM | TGI (OVCAR-3 ovarian): 54.9 µM | TGI (OVCAR-4 ovarian): 69.5 µM | TGI (OVCAR-5 ovarian): > 100 µM | TGI (OVCAR-8 ovarian): > 100 µM | TGI (SF-268 CNS): 52.5 µM | TGI (SN12C renal): 3.43 µM | TGI (SNB-19 CNS): > 100 µM | TGI (UACC-62 melanoma): 2.91 µM | TGI (UO-31 renal): 67.3 µM

Cc1ccc(-c2n[nH]c(=O)n2/N=C\c2ccccc2O)cc1
TGI (A549 NSCLC): > 100 µM | TGI (BT-549 breast): > 100 µM | TGI (CAKI-1 renal): > 100 µM | TGI (HOP-92 NSCLC): > 100 µM | TGI (HS 578T breast): > 100 µM | TGI (IGROV1 ovarian): > 100 µM | TGI (KM12 colon): > 100 µM | TGI (MDA-MB-435): > 100 µM | TGI (OVCAR-3 ovarian): > 100 µM | TGI (OVCAR-4 ovarian): > 100 µM | TGI (OVCAR-5 ovarian): > 100 µM | TGI (OVCAR-8 ovarian): > 100 µM | TGI (SF-268 CNS): > 100 µM | TGI (SK-OV-3 ovarian): > 100 µM | TGI (SN12C renal): > 100 µM | TGI (SNB-19 CNS): > 100 µM | TGI (UO-31 renal): > 100 µM

C/C=C1/CC(C(=O)OC)N(C(=O)OCc2ccccc2)C1=S (stereo not drawn)
TGI (A549 NSCLC): > 100 µM | TGI (BT-549 breast): > 100 µM | TGI (CAKI-1 renal): > 100 µM | TGI (HOP-92 NSCLC): > 100 µM | TGI (HS 578T breast): > 100 µM | TGI (IGROV1 ovarian): > 100 µM | TGI (KM12 colon): > 100 µM | TGI (MDA-MB-435): > 100 µM | TGI (OVCAR-3 ovarian): > 100 µM | TGI (OVCAR-4 ovarian): > 100 µM | TGI (OVCAR-5 ovarian): > 100 µM | TGI (OVCAR-8 ovarian): > 100 µM | TGI (SF-268 CNS): > 100 µM | TGI (SK-OV-3 ovarian): > 100 µM | TGI (SNB-19 CNS): > 100 µM | TGI (UACC-62 melanoma): > 100 µM | TGI (UO-31 renal): > 100 µM

C#CCN(Cc1ccc2nc(-c3ccccc3)c(Cl)nc2c1)c1ccc(F)cc1
TGI (A549 NSCLC): > 100 µM | TGI (BT-549 breast): > 100 µM | TGI (CAKI-1 renal): > 100 µM | TGI (HOP-92 NSCLC): > 100 µM | TGI (HS 578T breast): > 100 µM | TGI (IGROV1 ovarian): > 100 µM | TGI (KM12 colon): > 100 µM | TGI (MDA-MB-435): > 100 µM | TGI (OVCAR-3 ovarian): > 100 µM | TGI (OVCAR-4 ovarian): > 100 µM | TGI (OVCAR-5 ovarian): > 100 µM | TGI (OVCAR-8 ovarian): > 100 µM | TGI (SF-268 CNS): > 100 µM | TGI (SN12C renal): > 100 µM | TGI (SNB-19 CNS): > 100 µM | TGI (UACC-62 melanoma): > 100 µM | TGI (UO-31 renal): > 100 µM

— PubChem BioAssay (NCI)
